Tests used:
[1] = test system: GABAA receptor β3 subunit S408/9 phosphorylation; test: Immunoblot of β3 S408/9 phosphorylation in hippocampal slices; assay type: cell-based, mice; conditions: 100 nM, 20 min, acute hippocampal slices
Procedure: (§1) Hippocampi were dissected out of acute slices from 8 to 12 week old C57/B16 mice and lysed with phosphate buffer including: 20 mM Tris-HCl, 150 mM NaCl, 5 mM EDTA, 10 mM NaF, 2 mM Na3VO4, 10 mM pyrophosphate, 0.1% SDS and 1% Triton after drug treatment. The β3 subunit was isolated using immunoprecipitation with β3 antibodies, after correction for protein content and the specific activity of labeling. Results were attained by SDS/PAGE followed by autoradiography (Abramian et al., 2010). For biotinylation experiments hippocampi were dissected out of acute slices from 8 to 12 week old C57/B16 mice and incubated in artificial cerebrospinal fluid (ACSF) described above at 30° C. for 1 h for recovery before experimentation. Slices were then placed on ice and incubated for 30 min with 1 mg/mL NHS-SS-biotin (Pierce). Excess biotin was removed by a 50 mM glycine quenching buffer, followed by washing of slices three times in ice-cold ACSF. The tissue was snap frozen on dry ice for 5 min, thawed at 4° C. and lysed. The lysates were solubilized with 2% Triton at 4° C. on a rotating wheel for 1 h. The insoluble material was removed by centrifugation, and 350-500 μg of protein lysate were incubated with NeutrAvidin beads (Pierce) for 18-24 h at 4° C. Bound material was eluted with sample buffer and subjected to SDS/PAGE and then immunoblotted with the indicated antibodies. Blots were then quantified using the CCD-based ChemiDoc XRS ? system. Antibodies against the β3 subunit and the phospho-β3 antibody were generated and verified by the laboratory of S.J.M. (Vien et al., 2015).
To produce antibodies specific for phosphorylated S443, rabbits were injected with a synthetic peptide corresponding to residues […] of the murine α4 subunit in which the serine residue corresponding to S443 was chemically phosphorylated; […]. Hippocampal slices were treated with vehicle (Con), or SGE-516 for 20 min. Slices were immunoblotted with pS408/9, β3, or actin antibodies. The ratio of pS408/9/β3 immunoreactivity was then normalized to control slices (100%=the line).
Hippocampal slices were treated with 100 nM ALLO or P4 (progesterone), and S408/9 phosphorylation was then determined as detailed above, n=4 slices (FIG. 18D). Hippocampal slices were treated with 100 nM ORG (FIG. 18E). S408/9 phosphorylation was examined using immunoblotting.

[2] = test system: plasma membrane GABAARs containing the α4 and β3 subunits; test: Biotinylation, surface/total GABAAR subunits in hippocampal slices of WT mice; assay type: cell-based
Procedure: as §1
Hippocampal slices were treated as outlined above. Treated slices were then subject to biotinylation and lysis, and surface fractions were isolated on immobilized avidin. Surface (S) and total (T) fractions were immunoblotted with α4 and β3 subunit antibodies.
Consistent with the examples above, hippocampal slices from WT and S408/9A mice were treated for 20 min with 100 nM SGE-516 or vehicle (Con) and subjected to biotinylation followed by immunoblotting with β3 and α4 subunit antibodies. The ratio of surface/total (S/T) immunoreactivity was then normalized to levels seen in control (100%).

[3] = test system: GABA receptor trafficking; test: GABA receptor trafficking measured by GABAergic current density (FIG. 14); assay type: cell-based; conditions: measured by the GABAergic current density
Description: As shown in above examples, not all neurosteroids can modulate GABA receptor trafficking.

[4] = test system: GT1-7 cells (co-express mPRα and GABAARs), β3 S408/9 phosphorylation; test: Immunoblot of β3 S408/9 phosphorylation in GT1-7 cells; assay type: cell-based; conditions: 100 nM, 15 min; n=6
Procedure: GT1-7 cells that co-express mPRα and GABAARs were used to measure the level of phosphorylation at S408/9 position of β3 subunit. Quantitative PCR analysis indicated the enrichment of the mPRα mRNA in GT1-7 cells (FIG. 15A upper, figure taken from Thomas and Pang 2012). Expression of mPRα was confirmed using western blotting. 10 and 15 μg of SDS-soluble extracts from GT1-7 cells were immunoblotted with an mPRα specific antibody (FIG. 15A lower).
GT1-7 cells were treated with 100 nM AllO or P4 for 15 min and immunoblotted with antibodies specifically recognizing β3, actin, and […] β3 subunit (pS408/9). The ratio of pS408/9 β3 subunit immunoreactivity were then normalized to levels seen in vehicle treated to controls, n=6.

[5] = test system: sIPSCs in dentate gyms granule cells (DGGCs); test: sIPSCs in DGGCs after 15 min exposure and >30 min wash; assay type: cell-based, mice
Procedure: For tonic current measurements, an all-points histogram was plotted for a 10 s period before and during 100 μM picrotoxin application, once the response reached a plateau level. Recordings with unstable baselines were discarded. Fitting the histogram with a Gaussian distribution gave the mean baseline current amplitude and the difference between the amplitudes before and during picrotoxin was considered to be the tonic current. The negative section of the all-points histogram which corresponds to the inward IPSCs was not fitted with a Gaussian distribution (Kretschmannova et al., 2013; Nusser and Mody, 2002). Series resistance and whole-cell capacitance were continually monitored and compensated throughout the course of the experiment. Recordings were eliminated from data analysis if series resistance increased by >20%. Spontaneous inhibitory post-synaptic currents (sIPSCs) were analyzed using the mini-analysis software (version 5.6.4; Synaptosoft, Decatur, Ga.). Minimum threshold detection was set to 3 times the value of baseline noise signal. […] Only recordings with a minimum of 200 events fitting these criteria were analyzed. sIPSCs amplitude, and frequency from each experimental condition was pooled and expressed as mean±SEM. To measure sIPSC decay, 100 consecutive events were averaged and the decay was fitted to a double exponential and the weighted decay constant (tw) was determined. […]

[6] = test system: tonic current in DGGCs (β3 S408/9A mutant); test: Sustained effect on tonic current in DGGCs from S408/9A mice; assay type: cell-based; conditions: 100 nM, slices from S408/9A mice

SMILES | β3 S408/409 phosphorylation (p-β3/T-β3) [1] | GABAA-β3-containing receptors at the plasma membrane (surface β3/T-β3) ([2]; 100 nM, 20 min) | modulation of GABA receptor trafficking [3] | S408/9 phosphorylation (pS408/9/β3) in GT1-7 cells [4] | enhancement of sIPSC amplitude with GFX ([5]; 100 nM SGE-516 plus GFX) | sIPSC amplitude after exposure and wash ([5]; 100 nM, 15 min, washed >30 min) | plasma membrane levels of GABAARs containing α4 and β3 subunits, S/T normalized to control (100%) ([2]; 100 nM, 20 min, WT mice) | plasma membrane accumulation of the α4 and β3 subunits ([2]; hippocampal slices, biotinylation) | tonic current in DGGCs after incubation and extensive washout [6]
CC(=O)[C@H]1CC[C@H]2[C@@H]3CC[C@H]4C[C@H](O)CC[C@]4(C)[C@H]3CC[C@]12C [ALLO, Allopregnanolone] | increases | increases | modulated GABA receptor trafficking | increase |  |  |  |  | 
C[C@@]1(O)CC[C@H]2[C@H](CC[C@@H]3[C@@H]2CC[C@]2(C)[C@@H](C(=O)Cn4nccn4)CC[C@@H]32)C1 [SGE-516] | increases | increases | modulated GABA receptor trafficking |  | significantly reduced | significantly enhanced | 175-185% | increased | did not modify

From patent US20200341000A1, “METHOD OF SCREENING COMPOUNDS FOR TREATING CNS DISORDERS” (SAGE THERAPEUTICS, INC., priority 2017, published 2020)
